In patent US8987198B2, “Compositions and methods for treating obesity and diabetes” (The Administrators of the Tulane Educational Fund, priority 2009, dated 2015):

How the values were obtained:
[1] = system: Liver X Receptor in LNCaP Cells; test: Up-regulation of LXR-responsive genes ABCG1/ABCA1 in LNCaP cells; format: cell-based; conditions: glyceollin at 5 μM for 48 h
Method: LNCaP cells were obtained from the American Type Culture Collection (Manassas, Va.) and maintained in Media A [RPMI 1640 medium with phenol red (Invitrogen, Carlsbad, Calif.), 2 mM L-glutamine (Sigma), 100 U/mL penicillin and 100 μg/mL streptomycin (BioSource International, Camarillo, Calif.) with 10% fetal bovine serum (FBS) (Invitrogen, Carlsbad, Calif.)]. Cells were incubated in the presence of 5% CO2 in air at 37° C.

[2] = system: 3T3-L1 differentiated adipocytes; test: [3H]2-deoxyglucose uptake assay in 3T3-L1 adipocytes; format: cell-based, murine; conditions: for glucose uptake after addition of insulin: 0.3 nM insulin + glyceollin; for glucose uptake after addition of insulin / glucose uptake in the absence of insulin: FIG. 17; for glucose uptake in the absence of insulin: 24 h KRH, then 30 min exposure; for insulin-mediated glucose uptake after pre-incubation with glyceollins: 24 hours pre-incubation, 30 min insulin, FIG. 15
Method: Krebs-Ringers-Hepes (KRH) buffer was prepared with 200 mL H2O, 300 μL of 1 M CaCl2, 300 μL of 1.2 M MgSO4, 300 μL of 1 M KH2PO4, 3 mL of 0.14 M KCl, 6 mL of 1 M HEPES in 1.2 M NaHCO3, and 15 mL of 2.6 M NaCl. […] Insulin (MW=5808) stock solution (100 μM) was prepared by dissolving 2.90 mg insulin into 5 mL of 0.01 N HCl. To make working solutions: the stock solution was diluted 1:10 by adding 100 μL stock to 900 μL KRH buffer, giving solution A (10 μM); solution A was diluted by adding 400 μL of solution A to 932 μL KRH buffer, giving solution B (3 μM); solution A was diluted by adding 100 μL of solution A to 900 μL KRH buffer, giving solution C (1 μM); solution B was diluted by adding 100 μL of solution B to 900 μL KRH buffer, giving solution D (300 nM); solution C was diluted by adding 100 μL of solution C to 900 μL KRH buffer, giving solution E (100 nM); solution D was diluted by adding 100 μL of solution D to 900 μL KRH buffer, giving solution F (30 nM); solution E was diluted by adding 100 μL of solution E to 900 μL KRH buffer, giving solution G (10 nM); solution F was diluted by adding 100 μL of solution F to 900 μL KRH buffer, giving solution H (3 nM); solution G was diluted by adding 100 μL of solution G to 900 μL KRH buffer, giving solution I (1 nM); and solution H was diluted by adding 100 μL of solution H to 900 μL KRH buffer, giving solution J (0.3 nM). 100 μL of each concentration was added to each well with a final volume in each well of 1000 μL (1:10 dilution when added to cells). […] This stock solution was kept refrigerated. To make working solutions: 80 μL of the stock solution was diluted with 3920 μL KRH buffer, giving solution A (200 μM); solution A was diluted by adding 500 μL of solution A to 335 μL KRH buffer, giving solution B (120 μM); solution A was diluted by adding 1000 μL of solution A to 1000 μL KRH buffer, giving solution C (100 μM); solution A was diluted by adding 1000 μL of solution A to 1500 μL KRH buffer, giving solution D (80 μM); solution A was diluted by adding 1000 μL of solution A to 2330 μL KRH buffer, giving solution E (60 μM); solution D was diluted by adding 1000 μL of solution D to 1000 μL KRH buffer, giving solution F (40 μM); solution F was diluted by adding 1000 μL of solution F to 1000 μL KRH buffer, giving solution G (20 μM); solution G was diluted by adding 1000 μL of solution G to 1000 μL KRH buffer, giving solution H (10 μM); and solution H was diluted by adding 1000 μL of solution H to 1000 μL KRH buffer, giving solution I (5 μM). 100 μL of each concentration was added to each well with a final volume in each well of 1000 μL (1:10 dilution when added to cells). Unless indicated otherwise (see, e.g., EXAMPLES 14 & 15), where the EXAMPLES below refer to glyceollin, a mixture of glyceollins I, II, and III, was used. Cell culture and differentiation of murine 3T3-L1 cells is a well-accepted model for study of adipocyte differentiation, glucose uptake, and insulin action. These cells undergo a program of differentiation manifest by large lipid droplet accumulation when stimulated by the appropriate hormonal cocktail. The adipocytes express markers such as leptin and adiponectin, express Glut 4, and respond to insulin stimulation by increasing glucose uptake, similar to primary adipocytes. For these experiments, frozen preadipocytes were purchased from Zenbio (Research Triangle Park, N.C.). They were thawed at 37° C., diluted with Zenbio Preadipocyte medium, and incubated in 24-well plates at 37° C. in a humidified atmosphere containing 95% air and 5% CO2 until confluent. Signals derived from confluency were allowed by incubating for 2 more days. Preadipocyte medium was replaced with Zenbio Differentiation Medium and the cells were incubated for 3 additional days; that medium was replaced with Zenbio Adipocyte […] medium for about 2 weeks when greater than 95% of the cells appeared filled with large lipid droplets. […]

Row | Compound | glucose uptake after addition of insulin [2] | glucose uptake in the absence of insulin [2] | insulin-mediated glucose uptake after pre-incubation with glyceollins [2] | further results
1 | O=c1c(-c2ccc(O)cc2)coc2cc(O)cc(O)c12 [Genistein, genistein] | – | – | – | fold up-regulation of ABCG1 [1]: 3 fold
2 | C=C(C)[C@@H]1Cc2cc3c(cc2O1)OC[C@@]1(O)c2ccc(O)cc2O[C@@H]31 [glyceollin III] | further enhanced | can stimulate glucose uptake in the absence of insulin | more effective than glyceollin II | –
3 | CC1(C)C=Cc2c(ccc3c2OC[C@@]2(O)c4ccc(O)cc4O[C@@H]32)O1 [glyceollin I] | further enhanced | can stimulate glucose uptake in the absence of insulin | more effective than glyceollin II | glucose uptake after 30 minute exposure ([2]; 5 μM, cells pre-incubated 24 h with KRH, FIG. 16): stimulate glucose uptake better than glyceollins II and III
4 | Oc1ccc2c(c1)OC[C@@]1(O)c3ccc(O)cc3O[C@@H]21 [glycinol, reference compound] | – | – | – | glucose uptake after 30 minute exposure to glycinol ([2]; 1 μM and 0.1 μM, absence of insulin, FIG. 16 columns 7 and 8): does not present the same bioactivity as glyceollin; glucose uptake with glycinol ([2]; 5 μM glycinol, 24 h pre-incubation, with or without insulin, FIG. 14): ineffective at stimulating glucose uptake
5 | insulin [reference compound] | – | – | – | glucose uptake by insulin alone ([2]; 0.2 nM insulin, FIG. 19 column 2): stimulation of glucose uptake
